Structures are written as SMILES.

The record followed here is US20240109891A1, “NOVEL SUBSTITUTED TRICYCLIC AZA-HETEROCYCLES AS SOS1 INHIBITORS” (Viva Star Biosciences (Suzhou) Co., Ltd., priority 2021, published 2024).

Test [1] concerns the target T1, KRAS G12C and SOS1 proteins (Homo sapiens, UniProt Q07889).
T1 construct: purchased Cisbio 63ADK000CB16PEG
T1 sequence (Q07889 1-1333): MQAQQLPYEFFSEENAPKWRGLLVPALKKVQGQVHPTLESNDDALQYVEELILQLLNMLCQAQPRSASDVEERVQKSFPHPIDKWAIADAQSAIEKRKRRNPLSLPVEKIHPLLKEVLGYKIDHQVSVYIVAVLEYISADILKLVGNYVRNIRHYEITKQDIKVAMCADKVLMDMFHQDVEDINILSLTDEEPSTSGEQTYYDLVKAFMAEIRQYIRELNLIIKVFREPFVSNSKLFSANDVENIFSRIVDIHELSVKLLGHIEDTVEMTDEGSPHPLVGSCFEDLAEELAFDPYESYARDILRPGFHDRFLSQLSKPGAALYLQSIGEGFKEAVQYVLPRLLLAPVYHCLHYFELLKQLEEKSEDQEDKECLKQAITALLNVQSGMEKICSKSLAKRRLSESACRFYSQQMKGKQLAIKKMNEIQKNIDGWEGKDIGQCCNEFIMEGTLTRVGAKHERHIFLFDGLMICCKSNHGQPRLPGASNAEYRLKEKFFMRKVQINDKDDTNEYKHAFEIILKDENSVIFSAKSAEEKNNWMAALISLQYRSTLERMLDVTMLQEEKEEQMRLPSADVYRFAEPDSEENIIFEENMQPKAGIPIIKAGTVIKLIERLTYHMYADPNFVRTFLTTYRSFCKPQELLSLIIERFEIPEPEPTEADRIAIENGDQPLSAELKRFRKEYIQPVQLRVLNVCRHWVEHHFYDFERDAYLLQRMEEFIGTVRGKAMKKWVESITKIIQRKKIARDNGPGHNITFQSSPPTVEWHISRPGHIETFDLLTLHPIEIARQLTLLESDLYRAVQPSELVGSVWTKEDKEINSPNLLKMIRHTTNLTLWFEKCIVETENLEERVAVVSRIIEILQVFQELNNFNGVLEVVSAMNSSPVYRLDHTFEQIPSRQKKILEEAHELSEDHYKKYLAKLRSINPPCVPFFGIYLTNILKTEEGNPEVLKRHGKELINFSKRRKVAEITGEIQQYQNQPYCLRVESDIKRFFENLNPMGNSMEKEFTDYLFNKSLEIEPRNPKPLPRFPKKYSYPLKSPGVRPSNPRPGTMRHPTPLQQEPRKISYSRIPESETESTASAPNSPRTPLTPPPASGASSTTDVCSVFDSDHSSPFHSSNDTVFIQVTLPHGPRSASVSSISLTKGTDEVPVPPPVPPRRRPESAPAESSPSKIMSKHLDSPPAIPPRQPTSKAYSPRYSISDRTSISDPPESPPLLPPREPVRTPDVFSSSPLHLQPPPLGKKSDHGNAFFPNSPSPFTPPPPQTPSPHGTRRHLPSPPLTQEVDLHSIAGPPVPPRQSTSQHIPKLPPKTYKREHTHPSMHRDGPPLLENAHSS
The test is described as follows: KRAS-G12C/SOS1 binding assay (HTRF). To be noted: Tag1-SOS1 / Tag2-KRAS G12C, 10 μM GTP. As for the experimental part:
KRAS-WT (or G12C/G12D/G12V)/SOS1 Binding Assay
Low IC50 values are indicative of high potency of the SOS1 inhibitor compounds in this assay setting.
The KRAS-WT (or G12C/G12D/G12V)/SOS1 binding assay is performed using an assay kit (Cisbio, Cat #63ADK000CB15PEG or 63ADK000CB16PEG/63ADK000CB17PEG/63ADK000CB18PEG) according to the procedure recommended by the manufacturer. • 1) Thaw and prepare the working solution of Tag1-SOS1 protein and Tag2-KRAS-WT (or G12C/G12D/G12V) protein with final concentration of 10 μM GTP (Sigma, Cat #V900868). • 2) Thaw and prepare the working solution of anti-Tag1-Tb^3+ anti-Tag2-XL665. • 3) Dispense 2 μL of serially diluted compound, 4 μL of Tag1-SOS1 protein and 4 μL of Tag2-KRAS-WT (or G12C/G12D/G12V) protein with GTP into a ProxiPlate-384 Plus, white 384-shallow well microplate (PerkinElmer, Cat #6008280). • 4) Incubate the plate for 15 minutes at room temperature. • 5) Dispense 10 μL of pre-mixed anti-Tag1-Tb^3+ and anti-Tag2-XL665 into the plate. • 6) Seal the plate and incubate for 2 hours at room temperature. • 7) Remove the plate sealer and read on PHERAstar FS (BMG LABTECH, PHERAstar FS). • 8) Calculate the ratio of the acceptor and donor emission signals for each individual well using the following equation.
[formula] • 9) IC50 values are fitted and calculated by HTRF signal values and log of compound concentrations to nonlinear regression [Log (inhibitor) vs. Response−Variable Slope (four parameters)] using the GraphPad Prism 8.0.
Background: Time-resolved FRET reads energy transfer from a long-lived donor to a nearby acceptor.

In test [2] the target is T2, KRAS-WT and SOS1 proteins (Homo sapiens, UniProt Q07889).
T2 construct: purchased Cisbio 63ADK000CB15PEG
T2 sequence (Q07889 1-1333): T1 sequence (Q07889 1-1333)
The test is described as follows: KRAS-WT/SOS1 binding assay (HTRF). Particulars: Tag1-SOS1 / Tag2-KRAS-WT, 10 μM GTP, read-out: Activity Data in Kras: SOS1 Assay, Wild Type.

Test [3] concerns the target T3, KRAS G12D and SOS1 proteins (Homo sapiens, UniProt Q07889).
T3 construct: purchased Cisbio 63ADK000CB17PEG
T3 sequence (Q07889 1-1333): T1 sequence (Q07889 1-1333)
The test is described as follows: KRAS-G12D/SOS1 binding assay (HTRF). To be noted: Tag1-SOS1 / Tag2-KRAS G12D, 10 μM GTP.

The compound `COc1cc2c(cc1-c1ccc(=O)n(C)c1)c(N[C@H](C)c1cccc(C(F)F)c1F)nc1ccnn12` [Example 48, (R)-5-(5-((1-(3-(difluoromethyl)-2-fluorophenyl)ethyl)amino)-8-methoxypyrazolo[1,5-a]quinazolin-7-yl)-1-methylpyridin-2(1H)-one] came in with an IC50 in test [1] of 100 to 500 nM.

In turn, `COc1cc2c(cc1C1CCOCC1)c(N[C@H](C)c1cccc3c1CCC3(F)F)nc1ccnn12` [Example 50, (R)-N-(1-(1,1-difluoro-2,3-dihydro-1H-inden-4-yl)ethyl)-8-methoxy-7-(tetrahydro-2H-pyran-4-yl)pyrazolo[1,5-a]quinazolin-5-amine] came in with an IC50 in test [1] of 100 to 500 nM.

Regarding `COc1cc2c(cc1C1CCOCC1)c(N[C@H](C)c1cccc(C(F)(F)CO)c1)nc1ccnn12` [Example 51, (R)-2,2-difluoro-2-(3-(1-((8-methoxy-7-(tetrahydro-2H-pyran-4-yl)pyrazolo[1,5-a]quinazolin-5-yl)amino)ethyl)phenyl)ethanol], the IC50 in test [2], in test [1] and in test [3] was 100 to 500 nM throughout.

As for `COc1cc2c(cc1-c1ccc(=O)n(C)c1)c(N[C@H](C)c1cccc(C(F)(F)CO)c1)nc1ccnn12` [Example 45, (R)-5-(5-((1-(3-(1,1-difluoro-2-hydroxyethyl)phenyl)ethyl)amino)-8-methoxypyrazolo[1,5-a]quinazolin-7-yl)-1-methylpyridin-2(1H)-one], the IC50 in test [2] was below 100 nM; in test [1], 100 to 500 nM; in test [3] it was below 100 nM.

Regarding `COc1cc2c(cc1C1CCOCC1)c(N[C@H](C)c1cccc(C(F)F)c1F)nc1ccnn12` [Example 47, (R)-N-(1-(3-(difluoromethyl)-2-fluorophenyl)ethyl)-8-methoxy-7-(tetrahydro-2H-pyran-4-yl)pyrazolo[1,5-a]quinazolin-5-amine], the figures for the IC50 in test [2], in test [1] and in test [3] were 100 to 500 nM, 500 to 5000 nM and 500 to 5000 nM, respectively.

As for `C[C@@H](Nc1nc2ccnn2c2cc(=O)n(C3CCOCC3)cc12)c1cccc(C(F)(F)CO)c1` [Example 60, (R)-5-((1-(3-(1,1-difluoro-2-hydroxyethyl)phenyl)ethyl)amino)-7-(tetrahydro-2H-pyran-4-yl)pyrazolo[1,5-a]pyrido[3,4-e]pyrimidin-8(7H)-one], the IC50 in test [2], in test [1] and in test [3] was below 100 nM each time.

`Cc1nc(N[C@H](C)c2cccc(C(F)(F)CO)c2)c2cc(C3CCOCC3)c3nncn3c2n1` [Example 2, (R)-2,2-difluoro-2-(3-(1-((2-methyl-6-(tetrahydro-2H-pyran-4-yl)-[1,2,4]triazolo[4′,3′:1,6]pyrido[2,3-d]pyrimidin-4-yl)amino)ethyl)phenyl)ethanol]: the IC50 in test [1] and in test [3] was below 100 nM each time.

In test [1], `Cc1nc(N[C@H](C)c2cccc3c2CCC3(F)F)c2cc(-c3ccc(=O)n(C)c3)c3nncn3c2n1` [Example 3, (R)-5-(4-((1-(1,1-difluoro-2,3-dihydro-1H-inden-4-yl)ethyl)amino)-2-methyl-[1,2,4]triazolo[4′,3′:1,6]pyrido[2,3-d]pyrimidin-6-yl)-1-methylpyridin-2(1H)-one] registered an IC50 of 100 to 500 nM.

Take `Cc1nc(N[C@H](C)c2cccc(C(F)(F)CO)c2)c2cc(-c3ccc(=O)n(C)c3)c3nncn3c2n1` [Example 6, (R)-5-(4-((1-(3-(1,1-difluoro-2-hydroxyethyl)phenyl)ethyl)amino)-2-methyl-[1,2,4]triazolo[4′,3′:1,6]pyrido[2,3-d]pyrimidin-6-yl)-1-methylpyridin-2(1H)-one]: the IC50 in test [1] is below 100 nM.

In the case of `Cc1nc(N[C@H](C)c2cccc(C(F)F)c2F)c2cc(-c3ccc(=O)n(C)c3)c3nncn3c2n1` [Example 4, (R)-5-(4-((1-(3-(difluoromethyl)-2-fluorophenyl)ethyl)amino)-2-methyl-[1,2,4]triazolo[4′,3′:1,6]pyrido[2,3-d]pyrimidin-6-yl)-1-methylpyridin-2(1H)-one], the IC50 in test [1] was below 100 nM.

On to `C[C@@H](Nc1nc2ccnn2c2cc(=O)n(C3CCOCC3)cc12)c1cccc(C(F)F)c1F` [Example 59, (R)-5-((1-(3-(difluoromethyl)-2-fluorophenyl)ethyl)amino)-7-(tetrahydro-2H-pyran-4-yl)pyrazolo[1,5-a]pyrido[3,4-e]pyrimidin-8(7H)-one], for which the IC50 in test [1] is below 100 nM.

For `COc1cc2c(cc1-c1ccc(=O)n(C)c1)c(N[C@H](C)c1cccc3c1CCC3(F)F)nc1ccnn12` [Example 46, (R)-5-(5-((1-(1,1-difluoro-2,3-dihydro-1H-inden-4-yl)ethyl)amino)-8-methoxypyrazolo[1,5-a]quinazolin-7-y1)-1-methylpyridin-2(1H)-one], the IC50 in test [2] was below 100 nM; in test [1] it was 100 to 500 nM; in test [3] it was 100 to 500 nM.

In turn, `COc1cc2c(cc1C1=CCOCC1)c(N[C@H](C)c1cccc3c1CCC3(F)F)nc1ccnn12` [Example 49, (R)-N-(1-(1,1-difluoro-2,3-dihydro-1H-inden-4-y1)ethyl)-7-(3,6-dihydro-2H-pyran-4-yl)-8-methoxypyrazolo[1,5-a]quinazolin-5-amine] gave an IC50 in test [1] of 100 to 500 nM.

Regarding `Cc1nc(N[C@H](C)c2cccc3c2CCC3(F)F)c2cc(C3CCOCC3)c3nncn3c2n1` [Example 1, N-[(1R)-1-(1,1-difluoro-2,3-dihydro-1H-inden-4-yl)ethyl]-12-methyl-7-(oxan-4-yl)-2,4,5,11,13-pentaazatricyclo[7.4.0.0^{2,6}]trideca-1(9),3,5,7,10,12-hexaen-10-amine], the IC50 in test [1] and in test [3] was below 100 nM each time.

For `Cc1nc(N[C@H](C)c2cccc(C(F)F)c2F)c2cc(C3CCOCC3)c3nncn3c2n1` [Example 5, (R)-N-(1-(3-(difluoromethyl)-2-fluorophenyl)ethyl)-2-methyl-6-(tetrahydro-2H-pyran-4-yl)-[1,2,4]triazolo[4′,3′:1,6]pyrido[2,3-d]pyrimidin-4-amine], the IC50 in test [1] is below 100 nM.
